# Source: publication PMC3790769, “Ansamitocin P3 Depolymerizes Microtubules and Induces Apoptosis by Binding to Tubulin at the Vinblastine Site” (PLoS ONE, 2013)
# Biological target: T1, tubulin
# T1 construct: tubulin isolated from goat brain (alpha-beta dimer); with alpha-tubulin/beta-tubulin heterodimer
# Assay: intrinsic tryptophan fluorescence quenching of purified tubulin; supported by reduced DTNB cysteine modification
# Assay type: binding, Capra hircus
structure (smiles),measurement,value
COc1cc2cc(c1Cl)N(C)C(=O)C[C@H](OC(=O)C(C)C)[C@]1(C)O[C@H]1[C@H](C)[C@@H]1C[C@@](O)(NC(=O)O1)[C@H](OC)/C=C/C=C(\C)C2 [Ansamitocin P3],Kd,1.3 ± 0.7 µM
